Patent publication US20200276150A1, “PARENTERAL FORMULATIONS OF MACROLIDE ANTIBIOTICS” (Tetard, Inc., priority 2010, published 2020)
≈ marks a conversion by molar mass, not a printed value. Entries after “also recorded” stand apart in the source; their conditions may differ.

Experiments:
[1] = Saturated solubility of CEM-101 in a range of vehicles (Example 5); format: physicochemical; conditions: for solubility at 72 h: thermodynamic from solid, mixed 72 hours, HPLC
Description: EXAMPLE 5. Solubility of CEM-101 in a Range of Vehicles. […] Additional CEM-101 is added to vehicles which completely solubilized the CEM-101 API within 24 hours. Samples are allowed to mix for a total of 72 hours. Once mixed, the samples are assessed visually, centrifuged and then diluted to appropriate concentration for analysis by HPLC to determine saturated solubility. Without being bound by theory, it is believed herein that the vehicles are in situ salt forming compounds when mixed with CEM-101. Studies were conducted by weighing approximately 1000 mg of each vehicle into a number of vials. A known amount of CEM-101 was then added into each vial and the resulting mixture was mixed on a vortex prior to mixing overnight on a roller mixer.

[2] = CEM-101 in 60 mM tartaric acid with and without 0.9% NaCl, concentration by HPLC (Examples 3A, 3B); format: physicochemical
Description: EXAMPLE 3A. […] On addition of NaCl, the resultant solution went clear on mixing for an hour (53.0 mg/mL by HPLC). […] EXAMPLE 3B. Compositions of CEM-101 in an Unbuffered Solution for Parenteral Administration and Studies in 0.9% NaCl solution (˜8% w/v CEM-101). Approximately 90 mg CEM-101 was dissolved in 1 mL 60 mM tartaric acid pH 2.16 and allowed to mix overnight.

[3] = IV administration to monkeys, observation for pain response (Example 10); format: in vivo, Cynomolgus monkeys (Macaca fasicularis); conditions: IV infusion about 90 minutes, 5, 12.5, 25 mg/kg/d
Description: EXAMPLE 10. Pharmacokinetics (PK) in monkeys following IV administration. […] The plasma level of CEM-101 and toxicokinetics at 0-24 hours is measured (venipuncture, predose, then immediately following completion of infusion at 0, 0.5, 1, 4, 8, and 24 hours). Animal body weight is also periodically measured. […] Total dose volume is 15 mL/kg, and intravenous infusion is carried out over about 90 minutes (10 mL/kg/h) via disposable indwelling catheter into one of the brachial and/or saphenous veins. Vein or vein location is changed at least every seven days. Control animals receive vehicle alone. An illustrative formulation is CEM-101 in the following vehicle comprising or consisting essentially of L(+)-tartaric acid, D-mannitol, SWFI, 1N HaOH, and optionally 1-thioglycerol, as described herein. Following dosing, a portion of the animals are immediately euthanized for necropsy evaluation. A “recovery” group is observed for an additional 28 days without dosing, then euthanized for necropsy evaluation. It is appreciated that both monkeys and dogs elicit particular sensitivity to pain, and therefore may be observed for pain response upon administration of the test articles.

[4] = IV administration to dogs, observation for pain response (Example 11); format: in vivo, Beagle dogs (Canis familiaris); conditions: IV infusion about 90 minutes, 5, 10, 15 mg/kg/d
Description: EXAMPLE 11. Pharmacokinetics (PK) in dogs following IV administration. […] The plasma level of CEM-101 and toxicokinetics at 0-24 hours is measured (jugular venipuncture, predose, then immediately following completion of infusion at 0, 0.5, 1, 4, 8, and 24 hours). Animal body weight is also periodically measured. […] Total dose volume is 15 mL/kg, and intravenous infusion is carried out over about 90 minutes (10 mL/kg/h) via disposable indwelling catheter into one of the cephalic and/or saphenous veins. Vein or vein location is changed at least every seven days. Control animals receive vehicle alone. An illustrative formulation is CEM-101 in the following vehicle comprising or consisting essentially of L(+)-tartaric acid, D-mannitol, SWFI, 1N HaOH, and optionally 1-thioglycerol, as described herein. Following dosing, a portion of the animals are immediately euthanized for necropsy evaluation. A “recovery” group is observed for an additional 28 days without dosing, then euthanized for necropsy evaluation. It is appreciated that both monkeys and dogs elicit particular sensitivity to pain, and therefore may be observed for pain response upon administration of the test articles.

[5] = QT effects of CEM-101 (statement, no method); conditions: compared to other macrolides and ketolides
[6] = Cardiac tissue levels of CEM-101 (statement, no method); conditions: compared to other macrolides and ketolides
[7] = system: azithromycin-resistant strains; test: Antibacterial activity compared with azithromycin (statement, no method); format: cell-based
[8] = Excipient compatibility by HS-MCDSC (Example 8); format: physicochemical; conditions: API-excipient binary pair with CEM-101, 1:1 ratio, 30-80° C.
Description: EXAMPLE 8. Determination of Compatibility of Excipients for Lyophilized Pharmaceutical Composition. Excipient compatibility is assessed using high sensitivity multi-cell differential scanning calorimetry (HS-MCDSC). The high sensitivity multi-cell differential scanning calorimeter is an analytical instrument designed to measure heat capacity and changes in heat capacity as a function of temperature.
Stability (of an individual component) is usually assessed by loading a sample of the material into a cell and measuring the heat-flow as a function of time. The instrument should rapidly detect any degradation processes occurring, and the absence of any heat responses gives confidence that the system under investigation is stable.
A similar approach can be adopted for testing binary mixtures of the active pharmaceutical ingredient (API) and excipients. […] Any unexpected power change recorded in the drug-excipient mixture indicates a possible interaction between the two components.
Calorimetric data were recorded using a high sensitivity MCDSC (CSC Model 4100 MCDSC, USA). Samples were run using API alone (ca. 50 mg), excipients alone (ca. 50 mg) and API-Excipient binary pairs (ca. 25 mg:25 mg, 1:1 ratio). Samples were weighed directly into the cells which were sealed with the metal caps provided and a rubber sealing disc to ensure an air-tight seal. Experiments were programmed as follows:
The MCDSC consists of four cells contained in a loading chamber. The cells 1, 2 and 3 were filled with samples, while the 4th cell is always left empty and run as a blank. Prior to analysis, cells 1 to 3 were run empty with no samples to record the blank results which were then subtracted from subsequent results obtained from samples analysed. Data were recorded every 10 s using the dedicated software package CpCalc. Data analysis was performed using CpCalc and Microsoft Excel.
The calorimeter records all the events occurring in each of the sample cell. The approach adopted here was to calculate the power-time data obtained for the active and excipients alone. The calculated data is then used to create an ‘expected’ theoretical trace as an average of the signals coming from both API and excipients at a mixture of 1:1 ratio.

[9] = Freeze drying, visual observation of the cakes (Example 9); format: physicochemical; conditions: for Visual observation of the cake: excipient at its maximum concentration in CEM-101 IV solution, frozen -25° C. 2 h, freeze dried 24 h
Description: 1 mL of CEM-101 IV solution was dispensed into in a clear glass vial, followed by the careful addition of small amounts of the excipient under investigation (either 50 or 100 mg). The solution in the vials were mixed using a vortex mixer and sonicated until a clear solution was observed. The final data is shown below, and reflects the maximum possible amount of each excipient used in the freeze dried formulations. Subsequently, all clear vials were frozen at −25° C. for 2 h. The caps were then removed and the vials were covered with a small tissue paper and placed in the freeze drier for 24 h (in the dark). The cakes were then inspected and the following visual observations detailed in the table below were made.
Based on the results above, three excipients with no interaction with the API were selected and solutions containing various ratio combinations of the API and excipient were prepared. These solutions were then frozen at −25° C., then lyophilised for 24 h, in the dark. The resultant cakes were then examined visually to determine the integrity of the plugs.

[10] = Storage of lyophilized cakes at 5° C., 25° C./60% RH and 40° C./75% RH; format: physicochemical; conditions: 7, 13 and 28 days
Description: Cakes were stored at 5° C., 25° C./60% RH and 40° C./75% RH. Samples were evaluated at 7, 13 and 28 days.

[11] = Solubility of each excipient in CEM-101 IV solution (Example 9); format: physicochemical; conditions: in 1 mL CEM-101 IV solution (50 mg/mL)
Description: EXAMPLE 9. Characterization of properties of excipients for freeze drying to prepare lyophilized pharmaceutical composition. […] The solution in the vials were mixed using a vortex mixer and sonicated until a clear solution was observed. […] The caps were then removed and the vials were covered with a small tissue paper and placed in the freeze drier for 24 h (in the dark).

[12] = HPLC assay and total impurities of formulations (Example 6); format: physicochemical
Description: Turbid samples were centrifuged prior to analysis. Total Impurities are assessed by % HPLC peak area.

Compound | MC-DSC Results (No Interaction/Interaction) [8] | Visual observation of lyophilizate ([9]; API:Excipient Ratio 1:1) | Visual observation of lyophilizate ([9]; API:Excipient Ratio 1:2) | Visual observation of lyophilizate ([9]; API:Excipient Ratio 1:3) | Visual observation of lyophilizate ([9]; API:Excipient Ratio 1:4) | Visual observation of the cake [9] | Cake colour on storage [10] | Conc. (mg/mL), maximum possible amount of excipient giving a clear solution [11] | other results
CC[C@H]1OC(=O)[C@@](C)(F)C(=O)[C@H](C)[C@@H](O[C@@H]2O[C@H](C)C[C@H](N(C)C)[C@H]2O)[C@@](C)(OC)C[C@@H](C)C(=O)[C@H](C)[C@H]2N(CCCCn3cc(-c4cccc(N)c4)nn3)C(=O)O[C@]12C [CEM-101] |  |  |  |  |  |  |  |  | pH of resultant solution ([1]; CEM-101 in 1M Ascorbic Acid (sample 17)): 1.93; pH of resultant solution ([1]; CEM-101 in 1M Methane sulphonic Acid (sample 16)): 0.03; pH of resultant solution ([1]; CEM-101 in 1M Tartaric Acid (sample 19)): 1.27; solubility at 72 h ([1]; pH 0.03, simulated gastric fluid, vehicle 1M Methane sulphonic Acid (sample 16)): 100 mg/mL (≈ 118 mM); solubility at 72 h ([1]; pH 1.27, simulated gastric fluid, vehicle 1M Tartaric Acid (sample 19)): 100 mg/mL (≈ 118 mM); solubility at 72 h ([1]; pH 1.93, simulated gastric fluid, vehicle 1M Ascorbic Acid (sample 17)): 100 mg/mL (≈ 118 mM); solubility at 72 h ([1]; simulated gastric fluid, vehicle 1M Hydrochloric Acid (sample 15)): 100 mg/mL (≈ 118 mM); Concentration of clear solution by HPLC ([2]; 51.38 mg CEM-101 in 1 mL 60 mM tartaric acid pH 2.16, mixed overnight (5% initial formulation)): 50400 µg/mL; Concentration by HPLC after addition of 0.9% w/v NaCl ([2]; 5% NaCl formulation, clear on mixing for an hour): 53000 µg/mL; Concentration by HPLC after addition of 0.9% w/v NaCl ([2]; 8% NaCl formulation, white lump formed, mixed approx. 2 hours): 3900 µg/mL; solubility ([2]; aqueous buffer, thermodynamic from solid, approx. 90 mg CEM-101 in 1 mL 60 mM tartaric acid pH 2.16, mixed overnight (8% initial formulation), read-out: Saturated solubility by HPLC): 83 mg/mL (≈ 98.2 mM); Pain response upon IV administration [3]: no reaction by the animal was observed; Pain response upon IV administration [4]: no reaction by the animal was observed; QT effects / QT prolongation [5]: do not cause QT prologation; also recorded: low QT effects or no QT effects; Cardiac tissue levels / accumulation [6]: do not accumulate in cardiac tissue; also recorded: do not exhibit high cardiac tissue levels; Activity against azithromycin-resistant strains [7]: active; Potency relative to azithromycin ([7]; more potent than azithromycin): 8-16 times
NCC(=O)O [Glycine] | No | Good solid cake- with uniform | Good solid cake- with uniform | Good solid cake- with uniform | Good solid cake- with uniform | Good solid cake- | remained white |  | MC-DSC Results (No Interaction/Interaction) ([8]; listed as glycine): compatible
OC[C@@H](O)[C@@H](O)[C@H](O)[C@H](O)CO [Mannitol] | No | Good solid cake- with uniform | Good solid cake- with uniform | Good solid cake- with uniform | Good solid cake- with uniform | Good solid cake- | remained white | 200 mg/mL | MC-DSC Results (No Interaction/Interaction) ([8]; listed as mannitol): compatible
CC[C@H]1OC(=O)[C@@](C)(F)C(=O)[C@H](C)[C@@H](O[C@@H]2O[C@H](C)C[C@H](N(C)C)[C@H]2O)[C@@](C)(OC)C[C@@H](C)C(=O)[C@H](C)[C@H]2N(CCCCn3cc(-c4cccc(N)c4)nn3)C(=O)O[C@]12C [Preformulation] |  |  |  |  |  |  |  |  | Total Impurities [12]: 2.34 % HPLC peak area
OC[C@H]1O[C@@](CO)(O[C@H]2O[C@H](CO)[C@@H](O)[C@H](O)[C@H]2O)[C@@H](O)[C@@H]1O [Sucrose] | No | Good solid cake- with uniform | Good solid cake- with uniform | Good solid cake- with uniform | Good solid cake- with uniform |  | Some cake yellowing |  | MC-DSC Results (No Interaction/Interaction) ([8]; listed as sucrose): compatible
OC[C@H]1O[C@H](O[C@H]2O[C@H](CO)[C@@H](O)[C@H](O)[C@H]2O)[C@H](O)[C@@H](O)[C@@H]1O [Trehalose] | Interaction |  |  |  |  | Poor cake-puffing |  | 700 mg/mL | 
Isomalt | Interaction |  |  |  |  | Good solid cake- |  | 600 mg/mL | 
